Reference: US20200268728A1, “DRUG TARGETING CANCER STEM CELL” (Sumitomo Dainippon Pharma Co., Ltd., priority 2016, published 2020)
Counter-ions that a name gives are not always drawn. Like-named read-outs stand apart in the source and are kept apart here.

Assays:
LNCap cells = assay: Combination with Example 24, inhibitory effect on sphere-forming ability (Test Example 6); assay type: cell-based; conditions: LNCap sphere culture, test compound combined with Example 24 (2-1000 nmol/L), 4 days
Protocol: After the culture, CellTiterGlo (Promega) was added into all of the wells, and the plate is allowed to stand at room temperature for 10 minutes to measure the intensity of luminescence of each well. […] The formula for calculating the rate is shown below.
Sphere formation rate (%)=(Lsample)/(Lcontrol)×100
The value obtained by dividing the sphere formation rate by 100 and subtracting the calculated value from 1 is defined as a sphere formation inhibitory effect. The formula for calculating the effect is shown below.
Sphere formation inhibitory effect=1−(Sphere formation rate/100)
Also, the measured cell survival rate of the combination was defined as (Ld).
The minimum value thereof (sCI) was used as the criteria for screening.

HCT-116 cells = assay: Anti-tumor effect to HCT-116 tumor-bearing mouse (Test Example 2); assay type: in vivo; conditions: oral, read-out: T/C (%); for response vs control in vivo at 150 mg/kg: dosage 150 mg/kg
From the text: The present compound can be used to evaluate the anti-tumor effect thereof. A 4 to 7-week-old nude mouse (BALB/cAnNCrj-nu/nu, female, CHARLES RIVER LABORATORIES JAPAN, INC.) received intradermal transplantation of HCT-116 cells (ATCC) in an amount of 3×10^6 cells/mouse around the ventral portion. The engraftment of HCT-116 cells was observed 5 to 14 days after the transplantation, and then each compound suspended in a solvent such as 0.5% methylcellulose solution was orally administrated to the mouse in a dose of 1 to 200 mg/kg one to twice daily. The tumor volume was measured over time after the administration to evaluate the effect for reducing the tumor volume by the administration of each compound. The tumor volume can be calculated from the minor axis and the major axis of the tumor measured with a digital caliper (Mitutoyo) according to the following formula:
Tumor volume [mm^3]=0.5×minor axis [mm]×(major axis [mm])^2
The tumor volume in control administration group treated with only a solvent such as 0.5% methylcellulose solution was compared with that of the present compound administration group, and T/C value was calculated according the following formula to evaluate the anti-tumor effect of the present compound.
T/C(%)=(the tumor volume at the end of administration in the present compound administration group−the tumor volume at the start of administration in the present compound administration group)/(the tumor volume at the end of administration in the control administration group−the tumor volume at the start of administration in the control administration group)×100
The T/C values (%) of the present compound on each dosage and administration period in the HCT-116 tumor-bearing mouse are shown below.

[1] = HCT-116, 456 h, administration period 19 day

In the case of `CC(O)(CS(=O)(=O)c1ccc(F)cc1)C(=O)Nc1ccc(C#N)c(C(F)(F)F)c1` (centres unmarked) [Bicalutamide], the “sCI, minimum (Ld)/(Lc)” value (LNCap cells) is reported as 0.421.

With `CNC(=O)c1ccc(N2C(=S)N(c3ccc(C#N)c(C(F)(F)F)c3)C(=O)C2(C)C)cc1F` [Enzalutamide] the “sCI, minimum (Ld)/(Lc)” value (LNCap cells) was 0.826.

`O=C(/C=C/c1cccnc1)Nc1cn(Cc2cccc(Cl)c2)cn1` [Example 9-2, (2E)-N-(1-(3-Chlorobenzyl)-1H-imidazol-4-yl)-3-(pyridin-3-yl)prop-2-enamide dihydrochloride] gave a response vs control in vivo at 150 mg/kg (HCT-116 cells; HCT-116, 384 h, administration period 16 day) of 65%.

Work on `COc1ccc(C(=O)Nc2cn(Cc3cccc(Cl)c3)cn2)cc1OC` [Example 10-2, N-[1-(3-Chlorobenzyl)-1H-imidazol-4-yl]-3,4-dimethoxybenzamide hydrochloride] yielded a response vs control in vivo at 150 mg/kg (HCT-116 cells; [1]) of 53%.

For `COc1ccc(C(=O)Nc2cn(Cc3ccc(F)c(F)c3)cn2)cc1OC` [Example 11-2], the response vs control in vivo at 150 mg/kg (HCT-116 cells; [1]) was 52%.

In the case of `COc1ccc(C(=O)Nc2cn(Cc3cc(F)cc(F)c3)cn2)cc1OC` [Example 12-2], the response vs control in vivo at 150 mg/kg (HCT-116 cells; [1]) is reported as 84%.

`COc1ccc(C(=O)Nc2cn(Cc3cc(F)c(F)c(F)c3)cn2)cc1OC` [Example 13-2] was tested, and the response vs control in vivo at 15 mg/kg (HCT-116 cells; HCT-116, 528 h, dosage 15 mg/kg, administration period 22 day) was 72% and the response vs control in vivo at 150 mg/kg (HCT-116 cells; HCT-116, 528 h, administration period 22 day) was 45%.
